Measurements from patent US9765075B2, “Substituted bridged urea analogs as sirtuin modulators” (GLAXOSMITHKLINE LLC, priority 2013, dated 2017).
Where two headings read alike, the source gives them in different places.

Molecular target: T1, SIRT1 (Homo sapiens, UniProt Q96EB6)
T1 sequence (Q96EB6 1-747): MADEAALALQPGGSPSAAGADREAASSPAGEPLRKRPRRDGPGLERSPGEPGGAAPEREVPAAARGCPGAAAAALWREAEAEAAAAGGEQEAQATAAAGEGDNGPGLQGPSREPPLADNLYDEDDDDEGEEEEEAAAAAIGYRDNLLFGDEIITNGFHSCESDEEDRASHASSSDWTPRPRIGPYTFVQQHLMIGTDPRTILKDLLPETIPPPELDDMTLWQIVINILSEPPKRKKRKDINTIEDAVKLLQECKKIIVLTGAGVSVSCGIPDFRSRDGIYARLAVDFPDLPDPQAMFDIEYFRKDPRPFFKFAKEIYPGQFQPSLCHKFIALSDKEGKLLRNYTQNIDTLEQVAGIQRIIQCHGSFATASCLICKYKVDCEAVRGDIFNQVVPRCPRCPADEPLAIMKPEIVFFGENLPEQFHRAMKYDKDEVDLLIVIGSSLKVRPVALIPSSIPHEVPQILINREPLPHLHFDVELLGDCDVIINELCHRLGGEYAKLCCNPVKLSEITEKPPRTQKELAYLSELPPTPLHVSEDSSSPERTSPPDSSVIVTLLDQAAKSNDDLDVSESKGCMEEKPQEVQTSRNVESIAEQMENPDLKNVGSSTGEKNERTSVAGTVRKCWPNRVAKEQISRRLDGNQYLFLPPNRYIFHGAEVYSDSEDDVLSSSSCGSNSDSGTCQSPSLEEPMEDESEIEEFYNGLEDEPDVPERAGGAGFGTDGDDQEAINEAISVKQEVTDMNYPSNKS
Assay: Trp mass spectrometry assay (SIRT1 activation)
Format: biochemical
Details: for Emax: percent maximum fold activation of SIRT1, read-out: Tryp % Fold Act
Method in brief: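 N-His-tagged SIRT1 (10 nM), expressed in E. coli, was incubated with 0.5 μM Ac-RHKK(Ac)W-NH2 peptide and 120 μM NAD+ for 25 min at 25 °C in HEPES pH 7.5 with […]. The reaction was stopped with formic acid and O-acetyl-ADP-ribose or deacetylated peptide was quantified by mass spectrometry. Results are given as EC1.5 and percent maximal activation relative to DMSO control.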

[1] = Trp mass spectrometry assay, EC1.5 = concentration giving 150% activation of SIRT1
[2] = concentration of test compound that results in 150% activation of SIRT1, Trp peptide substrate
[3] = Trp mass spectrometry assay, EC1.5 = concentration of test compound that results in 150% activation of SIRT1

| Tryp AVG EC1.5 (μM) [1] | Emax (Trp mass spectrometry assay) [%] | Tryp AVG EC1.5 (μM) [2] | Emax (Trp peptide substrate) [%] | Tryp AVG EC1.5 (μM) [3] | Compound |
| --- | --- | --- | --- | --- | --- |
| A (EC1.5<1 μM) | ≥ 150 |  |  |  | CC(=O)NCc1ccc(NC(=O)N2c3nc(-c4cccc(C(F)(F)F)c4)ccc3N3CCC[C@H]2C3)cc1 [Example 790] |
|  |  | B (EC1.5 1-25 μM) | ≥ 150 |  | Cc1c(-c2ccc3c(n2)N(C(=O)Nc2ccccn2)[C@H]2CCN3C2)cnn1C [Example 531] |
|  | ≥ 150 |  |  |  | Cc1nc(NC(=O)N2c3nc(-c4cccc(C(F)(F)F)c4)ccc3N3CC[C@H]2C3)sc1C [Example 48] |
|  | ≥ 150 |  |  |  | O=C(Nc1cnccn1)N1c2nc(-c3cccc(C(F)(F)F)c3)ccc2N2CCC[C@H]1C2 [Example 27] |
|  | ≥ 150 |  |  | A (EC1.5<1 μM) | O=C(Nc1ccncn1)N1c2nc(-c3cccc(OC(F)(F)F)c3)ccc2N2CC[C@H]1C2 [Example 166] |
|  |  | B (EC1.5 1-25 μM) | ≥ 150 |  | N#Cc1ccccc1-c1ccc2c(n1)N(C(=O)Nc1ccncn1)[C@H]1CCCN2C1 [Example 451] |
|  |  | A (EC1.5<1 μM) | ≥ 150 |  | O=C(Nc1cncc(F)c1)N1c2nc(-c3cccc(N4CCC(F)(F)C4)c3)ccc2N2CC[C@H]1C2 [Example 271] |
| A (EC1.5<1 μM) | ≥ 150 |  |  |  | COC(=O)c1cccc(NC(=O)N2c3nc(-c4cccc(C(F)(F)F)c4)ccc3N3CC[C@H]2C3)c1 [Example 626] |
|  |  | C (EC1.5>25 μM) | < 150 |  | COc1cc(NC(=O)N2c3nc(-c4ccnc(F)c4)ccc3N3CC[C@H]2C3)ncn1 [Example 358] |
| A (EC1.5<1 μM) | ≥ 150 |  |  |  | O=C(Nc1cccc(Br)n1)N1c2nc(-c3cccc(C(F)(F)F)c3)ccc2N2CC[C@H]1C2 [Example 652] |
| A (EC1.5<1 μM) | ≥ 150 |  |  |  | CCCCC(=O)c1cccc(NC(=O)N2c3nc(-c4cccc(C(F)(F)F)c4)ccc3N3CC[C@H]2C3)c1 [Example 737] |
|  |  | B (EC1.5 1-25 μM) | ≥ 150 |  | O=C(Nc1cnccn1)N1c2nc(-c3cccc(C(F)(F)F)n3)ccc2N2CC[C@H]1C2 [Example 338] |
|  | ≥ 150 |  |  | A (EC1.5<1 μM) | Cn1ccc(NC(=O)N2c3nc(-c4cccc(OC(F)(F)F)c4)ccc3N3CC[C@H]2C3)n1 [Example 177] |
|  |  | A (EC1.5<1 μM) | ≥ 150 |  | O=C(Nc1cnccn1)N1c2nc(-c3cncc(C(F)(F)F)c3)ccc2N2CCC[C@H]1C2 [Example 452] |
| A (EC1.5<1 μM) | ≥ 150 |  |  |  | FC(F)(F)c1cccc(-c2ccc3c(n2)N(C(=S)Nc2cccc(-c4cnco4)c2)[C@H]2CCN3C2)c1 [Example 763] |
| C (EC1.5>25 μM) | < 150 |  |  |  | O=C(Nc1nnc(C(F)(F)F)s1)N1c2nc(-c3cccc(C(F)(F)F)c3)ccc2N2CC[C@H]1C2 [Example 650] |
|  |  | B (EC1.5 1-25 μM) | ≥ 150 |  | O=C(Nc1cnccn1)N1c2nc(-c3cncc(F)c3)ccc2N2CCC[C@H]1C2 [Example 432] |
|  | ≥ 150 |  |  |  | Cc1cnc(NC(=O)N2c3nc(-c4cccc(C(F)(F)F)c4)ccc3N3CC[C@H]2C3)nc1-c1ccccc1 [Example 79] |
|  | ≥ 150 |  |  |  | O=C(Nc1ccc(F)cn1)N1c2nc(-c3cccc(F)c3)ccc2N2CC[C@H]1C2 [Example 59] |
| A (EC1.5<1 μM) | ≥ 150 |  |  |  | O=C(Nc1nnc(-c2cccnc2)s1)N1c2nc(-c3cccc(C(F)(F)F)c3)ccc2N2CC[C@H]1C2 [Example 651] |
|  | ≥ 150 |  |  | A (EC1.5<1 μM) | N#Cc1cccc(-c2ccc3c(n2)N(C(=O)Nc2cnccn2)[C@H]2CCN3C2)c1 [Example 189] |
|  |  | B (EC1.5 1-25 μM) | ≥ 150 |  | O=C(Nc1ccccn1)N1c2nc(-c3ccc4c(c3)OC(F)(F)O4)ccc2N2CC[C@H]1C2 [Example 262] |
|  |  | C (EC1.5>25 μM) | < 150 |  | O=C1OC2(c3ccc(O)cc3Oc3cc(O)ccc32)c2ccc(NC(=S)NCc3cn(-c4cccc(NC(=O)N5c6nc(-c7cccc(C(F)(F)F)c7)ccc6N6CC[C@H]5C6)c4)nn3)cc21 [Example 608] |
